# pIC50: −log10 of the molar value.
# What was measured:
# [1] = target: T1, human ETA receptors (Homo sapiens, UniProt P25101); experiment: Inhibition of endothelin binding to recombinant ETA receptors; conditions: baculovirus-insect cell membranes, 20 pM 125I-endothelin, 20° C. for 2 hours or 4° C. for 24 hours, read-out: IC50 (inhibition of specific binding of 125I-endothelin)
# T1 construct: made in house; host or cells: baculovirus-infected insect cells (membrane preparation)
# T1 sequence (P25101 21-427): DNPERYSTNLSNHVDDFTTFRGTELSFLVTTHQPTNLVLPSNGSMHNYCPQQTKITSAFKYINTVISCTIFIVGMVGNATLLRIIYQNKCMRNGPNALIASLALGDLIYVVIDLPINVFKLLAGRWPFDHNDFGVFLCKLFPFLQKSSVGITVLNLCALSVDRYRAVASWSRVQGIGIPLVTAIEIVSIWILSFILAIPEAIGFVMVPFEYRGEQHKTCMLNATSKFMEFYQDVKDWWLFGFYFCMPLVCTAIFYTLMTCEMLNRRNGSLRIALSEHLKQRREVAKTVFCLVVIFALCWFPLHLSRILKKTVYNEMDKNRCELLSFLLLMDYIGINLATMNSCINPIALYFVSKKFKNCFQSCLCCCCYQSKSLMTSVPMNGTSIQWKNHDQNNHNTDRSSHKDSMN
# Description: I: […] A cDNA coding for human ETA receptors of human placenta was cloned ([…]. Yang, Y. Furuichi and C. Miyamoto, BBRC 180, 1265-1272) and expressed in the baculovirus-insect cell system. Baculovirus-infected insect cells from a 23 l fermenter are centrifuged off (3000×g, 15 minutes, 4° C.) 60 hours after the infection, re-suspended in Tris buffer (5 mM, pH 7.4, 1 mM MgCl2) and again centrifuged. After a further re-suspension and centrifugation the cells are suspended in 800 ml of the same buffer and […] at -120° C. The cells disintegrate when the suspension in this hypotonic buffer mixture is thawed. After a repeated freeze-drying/thawing cycle the suspension is homogenized and centrifuged (25000×g, 15 minutes, 4° C.). After suspension in Tris buffer (75 mM, pH 7.4, 25 mM MgCl2, 250 mM sucrose) 1 ml aliquots (protein content about 3.5 mg/ml) are stored at -85° C. […] The incubation is carried out at 20° C. for 2 hours or at 4° C. for 24 hours. The separation of free and membrane-bound radio-ligands is carried out by filtration over a glass fibre filter.
# [2] = target: T2, endothelin-induced contractions in isolated rat aorta rings (Rattus norvegicus, UniProt P26684); experiment: Inhibition of endothelin-induced contractions in isolated rat aorta rings; assay type: cell-based, rat (Wistar-Kyoto); conditions: read-out: pA2 value; Dose ratio (switch to the right) (converted)
# T2 construct: cut out from the thorax aorta of adult Wistar-Kyoto rats; from tissue; host or cells: thoracic aorta rings of adult Wistar-Kyoto rats, endothelium removed
# T2 sequence (P26684 21-426): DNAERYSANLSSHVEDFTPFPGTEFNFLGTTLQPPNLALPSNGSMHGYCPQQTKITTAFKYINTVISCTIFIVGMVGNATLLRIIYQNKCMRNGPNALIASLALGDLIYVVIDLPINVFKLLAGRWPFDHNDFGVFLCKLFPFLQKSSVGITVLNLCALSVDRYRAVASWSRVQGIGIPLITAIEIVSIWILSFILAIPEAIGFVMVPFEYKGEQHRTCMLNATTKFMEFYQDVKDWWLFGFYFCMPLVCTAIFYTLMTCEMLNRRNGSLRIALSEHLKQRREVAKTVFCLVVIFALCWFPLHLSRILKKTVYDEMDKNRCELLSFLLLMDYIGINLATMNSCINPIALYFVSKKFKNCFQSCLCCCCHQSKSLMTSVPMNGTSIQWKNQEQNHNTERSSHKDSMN
# Description: Rings with a length of 5 mm were cut out from the thorax aorta of adult Wistar-Kyoto rats. The endothelium was removed by lightly rubbing the internal surface. Each ring was immersed at 37° C. in 10 ml of Krebs-Henseleit solution in an isolated bath while gassing with 95% O2 and 5% CO2. The isometric stretching of the rings was measured. The rings were stretched to a pre-tension of 3 g.
# The corresponding pA2 value, which is a measure of the activity of the test compound, was calculated using a computer programme according to the following equation from the "dose ratio" DR for each individual dosage-activity curve.
# pA2 =log(DR-1)-log(antagonist-concentration)
Compound,pIC50 [1],Kb [2] [nM]
"COc1ccccc1Oc1c(NS(=O)(=O)c2ccc(C(C)(C)C)cc2)nc(-c2ccnc(-c3nnn[nH]3)c2)nc1OCCOC(=O)Nc1ccccn1 [Example 4, 2-[6-(4-tert-butyl-phenylsulphonylamino)-5-(2-methoxy-phenoxy)-2-(2-1H-tetrazol-5-yl-pyridin-4-yl)-pyrimidin-4-yl-oxy]-ethyl pyridin-2-ylcarbamate]",8.22,0.251
"COc1ccccc1Oc1c(NS(=O)(=O)c2ccc(C)cn2)nc(-c2ccnc(-c3nnn[nH]3)c2)nc1OCCO [Example 29, 5-methyl-pyridine-2-sulphonic acid 6-(2-hydroxy-ethoxy)-5-(2-methoxy-phenoxy)-2-(2-1H-tetrazol-5-yl-pyridin-4-yl)-pyrimidin-4-ylamide]",8.40,0.1
"COc1ccccc1Oc1c(NS(=O)(=O)c2ccccc2)nc(-c2ccnc(-c3nnn[nH]3)c2)nc1OCCOC(=O)Nc1ccccn1 [Example 35, 2-[5-(2-methoxy-phenoxy)-6-phenyl-sulphonylamino-2-(2-1H-tetrazol-5-yl-pyridin-4-yl)-pyrimidin-4-yloxy]-ethyl pyridin-2-ylcarbamate]",8.70,0.316
"COc1ccccc1Oc1c(NS(=O)(=O)c2ccc(C)cc2)nc(-c2ccnc(-c3nnn[nH]3)c2)nc1OCCOC(=O)Nc1ccccn1 [Example 36, 2-[5-(2-methoxy-phenoxy)-6-(4-methyl-phenylsulphonylamino)-2-(2-1H-tetrazol-5-yl-pyridin-4-yl)-pyrimidin-4-yloxy]-ethyl pyridin-2-ylcarbamate]",8.10,0.398
"COc1ccccc1Oc1c(NS(=O)(=O)c2ccc(SC)cc2)nc(-c2ccnc(-c3nnn[nH]3)c2)nc1OCCOC(=O)Nc1ccccn1 [Example 40, 2-[5-(2-methoxy-phenoxy)-6-(4-methylsulphanylphenylsulphonylamino)-2-(2-1H-tetrazol-5-yl-pyridin-4-yl)-pyrimidin-4-yloxy]-ethyl pyridin-2-ylcarbamate]",8.10,0.0631
"COc1ccccc1Oc1c(NS(=O)(=O)c2ccc3c(c2)OCO3)nc(-c2ccnc(-c3nnn[nH]3)c2)nc1OCCOC(=O)Nc1ccccn1 [Example 41, 2-[6-(1,3-benzodioxol-5-yl-sulphonylamino)-5-(2-methoxy-phenoxy)-2-(2-1H-tetrazol-5-yl-pyridin-4-yl)-pyrimidin-4-yloxy]-ethyl pyridin-2-ylcarbamate]",9.00,0.0251
